Legend:
Type in all cases: cell-based, human
NCI/ADR-RES = assay: SRB anticancer assay, ovarian; design: Log10GI50: unit not given here; conditions: for Log10GI50: present compounds
OVCAR-4 = assay: SRB anticancer assay, ovarian; conditions: Homo sapiens, OVCAR-4, 48 h
OVCAR-3 = assay: SRB anticancer assay, ovarian; design: Log10GI50: unit not given here
NCI-H460 = assay: SRB anticancer assay, non-small lung; conditions: Homo sapiens, NCI-H460, 48 h
DU-145 = assay: SRB anticancer assay, prostate; design: Log10GI50: unit not given here
K-562 = assay: SRB anticancer assay, leukemia; design: Log10GI50: unit not given here
KM12 = assay: SRB anticancer assay, colon; conditions: Homo sapiens, KM12, 48 h
LOX IMVI = assay: SRB anticancer assay, melanoma; design: Log10GI50: unit not given here
U251 = assay: SRB anticancer assay, CNS; design: Log10GI50: unit not given here
SR = assay: SRB anticancer assay, leukemia; conditions: Homo sapiens, 48 h
SK-MEL-5 = assay: SRB anticancer assay, melanoma; conditions: Homo sapiens, SK-MEL-5, 48 h
SF-539 = assay: SRB anticancer assay, CNS; design: Log10GI50: unit not given here
NCI-H522 = assay: SRB anticancer assay, non-small lung; design: Log10GI50: unit not given here
TK-10 = assay: SRB anticancer assay, renal; conditions: Homo sapiens, TK-10, 48 h
SF-295 = assay: SRB anticancer assay, CNS; design: Log10GI50: unit not given here
[1] = system: Leukemia cancer cell lines; assay: SRB anticancer assay, panel result
Procedure: (§1) The compounds were evaluated for anticancer activity against sixty human cancer cells derived from nine cancer types (leukemia cell line, non-small-cell lung cell line, colon cell line, CNS cell line, melanoma cell line, ovarian cell line, prostate cell line, renal cancer cell line and breast cancer cell line) as shown in Table 1. For each compound, dose response curves for each cell line were measured at a minimum of five concentrations at 10 fold dilutions. A protocol of 48 h continuous drug exposure was used and a sulforhodamine B (SRB) protein assay was used to estimate cell viability or growth.

[2] = system: Ovarian cancer cell lines; assay: SRB anticancer assay, panel result
Procedure: as §1

Colon cancer cell lines = assay: SRB anticancer assay, panel result
Procedure: as §1

[3] = system: Prostate cancer cell lines; assay: SRB anticancer assay, panel result
Procedure: as §1

[4] = system: Non-small cell lung cancer cell lines; assay: SRB anticancer assay, panel result
Procedure: as §1

Renal cancer cell lines = assay: SRB anticancer assay, panel result
Procedure: as §1

Breast cancer cell lines = assay: SRB anticancer assay, panel result
Procedure: as §1

[5] = system: Melanoma cancer cell lines; assay: SRB anticancer assay, panel result
Procedure: as §1

CNS cancer cell lines = assay: SRB anticancer assay, panel result
Procedure: as §1

786-0 = assay: SRB anticancer assay, renal

Q: Which GI50 (NCI/ADR-RES; Homo sapiens, NCI/ADR-RES, 48 h) does the source give for `COc1ccc(-c2cncn2-c2ccc(-c3nc4cc(OC)c(OC)c(OC)c4s3)cc2)cc1N` [Compound 7j, 2-Methoxy-5-(1-(4-(5,6,7-trimethoxybenzo[d]thiazol-2-yl)phenyl)-1H-imidazol-5-yl)benzeneamine] here?
A: 3.12 µM

Q: And the Log10GI50 (NCI/ADR-RES; NCI/ADR-RES (row head NCI/ADR-))?
A: −5.51

Q: What about the Log10GI50 (NCI/ADR-RES; listed as head printed RES (second line of NCI/ADR-RES)) of the same compound?
A: >−4.0

Q: And the GI50 (OVCAR-4)?
A: 6.29 µM

Q: What about the GI50 (OVCAR-3; Homo sapiens, OVCAR-3, 48 h) of the same compound?
A: 5.18 µM

Q: What about the Log10GI50 (OVCAR-3; OVCAR-3, present compounds) of the same compound?
A: −5.29

Q: What about the GI50 (NCI-H460) of the same compound?
A: 4.69 µM

Q: And the Log10GI50 (DU-145; DU-145, present compounds)?
A: −5.20

Q: What about the GI50 (DU-145; Homo sapiens, DU-145, 48 h) of the same compound?
A: 6.38 µM

Q: And the GI50 (K-562; Homo sapiens, K562, K-562, 48 h)?
A: 3.38 µM

Q: What about the Log10GI50 (K-562; K-562, present compounds) of the same compound?
A: −5.47

Q: What about the GI50 (KM12) of the same compound?
A: 3.8 µM

Q: What about the GI50 (LOX IMVI; Homo sapiens, 48 h) of the same compound?
A: 4.75 µM

Q: And the Log10GI50 (LOX IMVI; present compounds)?
A: −5.32

Q: And the GI50 (U251; Homo sapiens, U-251, U251, 48 h)?
A: 6 µM

Q: What about the Log10GI50 (U251; U251, present compounds) of the same compound?
A: −5.22

Q: What about the GI50 (SR) of the same compound?
A: 3.43 µM

Q: And the GI50 (SK-MEL-5)?
A: 1.73 µM

Q: What about the GI50 (SF-539; Homo sapiens, SF-539, 48 h) of the same compound?
A: > 100 µM

Q: What about the Log10GI50 (SF-539; SF-539, present compounds) of the same compound?
A: >−4.0

Q: What about the GI50 (NCI-H522; Homo sapiens, NCI-H522, 48 h) of the same compound?
A: 3.37 µM

Q: And the Log10GI50 (NCI-H522; NCI-H522, present compounds)?
A: −5.47

Q: And the GI50 (TK-10)?
A: 4.16 µM

Q: And the GI50 (SF-295; Homo sapiens, SF-295, 48 h)?
A: 4.44 µM

Q: And the Log10GI50 (SF-295; SF-295, present compounds)?
A: −5.35

Q: And the LC50 ([1]; Homo sapiens, Leukemia panel, 50% net cell death, read-out: mean graph midpoint value (MG_MID) of Log10 LC50 (converted))?
A: > 100 µM

Q: And the GI50 ([1]; Homo sapiens, six leukemia cancer cell lines, exposure at least 48 h, read-out: GI50, range over the panel)?
A: 2.2 to 4 µM

Q: And the “mean graph midpoint value (MG_MID) of Log10 GI50” value ([1]; Leukemia panel)?
A: −5.49 log10(mol/L)

Q: What about the “mean graph midpoint value (MG_MID) of log10 TGI” value ([1]; Leukemia panel, total inhibition of net cell growth) of the same compound?
A: −4.20

Q: And the LC50 ([2]; Homo sapiens, Ovarian panel, 50% net cell death, read-out: mean graph midpoint value (MG_MID) of Log10 LC50 (converted))?
A: > 100 µM

Q: What about the GI50 ([2]; Homo sapiens, seven ovarian cancer cell lines, exposure at least 48 h, read-out: GI50, range over the panel) of the same compound?
A: 3.12 to 6.29 µM

Q: What about the “mean graph midpoint value (MG_MID) of Log10 GI50” value ([2]; Ovarian panel) of the same compound?
A: −4.93 mol/L

Q: What about the “mean graph midpoint value (MG_MID) of log10 TGI” value ([2]; Ovarian panel, total inhibition of net cell growth) of the same compound?
A: >−4.0

Q: And the “mean graph midpoint value (MG_MID) of Log10 GI50” value (Colon cancer cell lines; Colon panel)?
A: −5.40 log10(mol/L)

Q: And the “mean graph midpoint value (MG_MID) of log10 TGI” value (Colon cancer cell lines; Colon panel, total inhibition of net cell growth)?
A: −4.11

Q: And the LC50 (Colon cancer cell lines; Homo sapiens, Colon panel, 50% net cell death, read-out: mean graph midpoint value (MG_MID) of Log10 LC50 (converted))?
A: > 100 µM

Q: And the GI50 (Colon cancer cell lines; Homo sapiens, seven colon cancer cell lines, exposure at least 48 h, read-out: GI50, range over the panel)?
A: 2.94 to 6.21 µM

Q: And the LC50 ([3]; Homo sapiens, Prostate panel, 50% net cell death, read-out: mean graph midpoint value (MG_MID) of Log10 LC50 (converted))?
A: > 100 µM

Q: What about the GI50 ([3]; Homo sapiens, two prostate cancer cell lines (PC-3, DU-145), exposure at least 48 h, read-out: GI50, range over the panel) of the same compound?
A: 2.59 to 6.38 µM

Q: What about the “mean graph midpoint value (MG_MID) of Log10 GI50” value ([3]; Prostate panel) of the same compound?
A: −5.39 mol/L

Q: What about the “mean graph midpoint value (MG_MID) of log10 TGI” value ([3]; Prostate panel, total inhibition of net cell growth) of the same compound?
A: >−4.0

Q: And the LC50 ([4]; Homo sapiens, Non-small cell lung panel, 50% net cell death, read-out: mean graph midpoint value (MG_MID) of Log10 LC50 (converted))?
A: > 100 µM

Q: And the GI50 ([4]; Homo sapiens, nine Non-small cell lung cancer cell lines, exposure at least 48 h, read-out: GI50, range over the panel)?
A: 3.37 to 25.7 µM

Q: What about the “mean graph midpoint value (MG_MID) of Log10 GI50” value ([4]; Non-small cell lung panel) of the same compound?
A: −5.18 log10(M)

Q: What about the “mean graph midpoint value (MG_MID) of log10 TGI” value ([4]; Non-small cell lung panel, total inhibition of net cell growth) of the same compound?
A: −4.11

Q: And the CC50 (Renal cancer cell lines; Homo sapiens, Renal panel, 50% net cell death, read-out: mean graph midpoint value (MG_MID) of Log10 LC50 (converted))?
A: > 100 µM

Q: What about the GI50 (Renal cancer cell lines; Homo sapiens, eight renal cancer cell lines, exposure at least 48 h, read-out: GI50, range over the panel) of the same compound?
A: 1.99 to 9.44 µM

Q: What about the “mean graph midpoint value (MG_MID) of Log10 GI50” value (Renal cancer cell lines; Renal panel) of the same compound?
A: −5.31 log10(mol/L)

Q: What about the “mean graph midpoint value (MG_MID) of log10 TGI” value (Renal cancer cell lines; Renal panel, total inhibition of net cell growth) of the same compound?
A: −4.14

Q: What about the “mean graph midpoint value (MG_MID) of Log10 GI50” value (Breast cancer cell lines; Breast panel) of the same compound?
A: −4.96 mol/L

Q: What about the “mean graph midpoint value (MG_MID) of log10 TGI” value (Breast cancer cell lines; Breast panel, total inhibition of net cell growth) of the same compound?
A: >−4.0

Q: And the CC50 (Breast cancer cell lines; Homo sapiens, Breast panel, 50% net cell death, read-out: mean graph midpoint value (MG_MID) of Log10 LC50 (converted))?
A: > 100 µM

Q: And the GI50 (Breast cancer cell lines; Homo sapiens, six breast cancer cell lines, exposure at least 48 h, read-out: GI50, range over the panel)?
A: 3.02 to 28.3 µM

Q: And the LC50 ([5]; Homo sapiens, Melanoma panel, 50% net cell death, read-out: mean graph midpoint value (MG_MID) of Log10 LC50 (converted))?
A: 81.3 µM

Q: And the GI50 ([5]; Homo sapiens, nine melanoma cancer cell lines, exposure at least 48 h, read-out: GI50, range over the panel)?
A: 1.73 to 13.7 µM

Q: What about the “mean graph midpoint value (MG_MID) of Log10 GI50” value ([5]; Melanoma panel) of the same compound?
A: −5.17 log10(mol/L)

Q: And the “mean graph midpoint value (MG_MID) of log10 TGI” value ([5]; Melanoma panel, total inhibition of net cell growth)?
A: −4.26

Q: What about the “mean graph midpoint value (MG_MID) of Log10 GI50” value (CNS cancer cell lines; CNS panel) of the same compound?
A: −4.53 mol/L

Q: What about the “mean graph midpoint value (MG_MID) of log10 TGI” value (CNS cancer cell lines; CNS panel, total inhibition of net cell growth) of the same compound?
A: >−4.0

Q: And the CC50 (CNS cancer cell lines; Homo sapiens, CNS panel, 50% net cell death, read-out: mean graph midpoint value (MG_MID) of Log10 LC50 (converted))?
A: > 100 µM

Q: What about the GI50 (CNS cancer cell lines; Homo sapiens, six CNS cancer cell lines, exposure at least 48 h, read-out: GI50, range over the panel) of the same compound?
A: 4.44 to 52.3 µM

Q: And the Log10GI50 (786-0; 786-0, present compounds)?
A: −5.24 log10 M

Q: And the GI50 (786-0; Homo sapiens, 786-0, 48 h)?
A: 5.73 µM

Source: patent US9187467B2, “2-phenyl benzothiazole linked imidazole compounds as potential anticancer agents and process for the preparation thereof” (Council of Scientific and Industrial Research, priority 2012, dated 2015)
